Values quoted from earlier work, collected in patent publication US20160095816A2, “ARTICLE AND METHODS FOR ORAL SELF-ADMINISTRATION OF NICOTINE” (priority 2012, published 2016).

Experiments:
[1] = cigarette smoking, inhaled; "may be as high as"
[2] = metabolized in the liver

CN1CCCC1c1cccnc1 (centres unmarked) [Nicotine, 3-(1-Methyl-2-pyrrolidinyl) pyridine]
peak of nicotine delivered into the bloodstream through smoking [1]: 30-40 nanograms per milliliter of blood | half life in the bloodstream [2]: 1 to 2 h
